Experimental data as given in PMC5677254, “Design, Synthesis, and Characterization of N-Oxide-Containing Heterocycles with in Vivo Sterilizing Antitubercular Activity” (Journal of Medicinal Chemistry, 2017).
pIC50: −log10 of the molar value. ≈ marks a conversion by molar mass, not a printed value. Where “and” joins values, the source holds several entries; their conditions need not be identical. Identical values can stand only once. Like-named read-outs stand apart in the source and are kept apart here.

Key:
[1] = test system: MRC-5 human lung fibroblast cell line; design: method as in PMID 27508879; details: cited from earlier work
[2] = test system: Mtb H37Rv (ATCC 27294); design: method as in PMID 27508879; details: cited from earlier work
[3] = test system: dormant M. tuberculosis H37Rv; experiment: microbe, parasite or virus in culture; format: cell-based; details: Mycobacterium tuberculosis, dormant (nonreplicating) M. tuberculosis H37Rv
[4] = Cytotoxicity against MRC-5 cell line; details: human, cytotoxicity IC50, MRC-5 cell line
[5] = test system: Mtb H37Rv (ATCC 27294); experiment: Resazurin microtiter assay (REMA), MIC90 against bacteria in active state; format: cell-based; details: Mycobacterium tuberculosis, actively replicating M. tuberculosis H37Rv, REMA; for MIC90: read-out: MIC90
[6] = test system: Escherichia coli (ATCC 25922); experiment: Spectrum of activity, OD570 after 16 h; format: cell-based; details: ATCC25922, read-out: MIC90 (antimicrobial activity)
Experimental: (§1) Determination of Minimal Inhibitory Concentration (MIC90) Against Bacteria in Dormant […]
(§2) The selective compounds (SI ≥ 10) were tested against the mycobacterium in a dormant state. The cultures were thawed, diluted in Middlebrook 7H12 broth, and sonicated for 5 s. The cultures were diluted to obtain the concentration between […] and 2 × 10^6 CFU/mL. TwoHfold serial dilutions of the compounds were prepared in a volume of […] in white 96Hwell microtiter plates, followed by the addition of […] of the cell suspension. The microplate cultures were placed under anaerobic conditions (oxygen concentration less than 0.16%) by using an Anoxomat model WS8080 (MART Microbiology) followed by two cycles of evacuation and filling with a mixture of 10% hydrogen (H2), 5% carbon dioxide (CO2), and the balance with nitrogen (N2). An anaerobic indicator strip was placed inside the chamber to visually confirm the removal of oxygen. The plates were incubated at 37°C for 10 days and then transferred to an ambient gaseous condition (5% CO2H enriched air) incubator for a 28 h “recovery.” On day 11 (after the 28Hh aerobic recovery), we determined the luminescence and calculated the MIC90.4
(§3) To establish the spectrum activity, we determined the MIC90 against E. coli (ATCC 25922) and S. aureus (ATCC 29213) by measuring the optical density at 570 nm after 16 h of incubation in Mueller–Hinton II broth (Becton Dickinson, Sparks; Maryland, United States) and against C. albicans (ATCC 10231) at OD570 after 48 h in Cellgro RPMI 1640 medium (Mediatech Inc., Manassas, Virginia, United States). The MIC was defined as the lowest concentration resulting in 90% reduction in absorption relative to that of untreated control cultures.
(§4) Determination of Minimal Inhibitory Concentration Against Isogenic Monoresistant Strains

[7] = test system: Staphylococcus aureus (ATCC 29213); experiment: Spectrum of activity, OD570 after 16 h; format: cell-based; details: ATCC29213, read-out: MIC90 (antimicrobial activity)
Experimental: as §1, §2, §3, §4

[8] = test system: Candida albicans (ATCC 10231); experiment: Spectrum of activity, OD570 after 48 h; format: cell-based; details: ATCC10231, read-out: MIC90 (antimicrobial activity)
Experimental: as §1, §2, §3, §4

O=C(N/N=C/c1ccc(Oc2no[n+]([O-])c2S(=O)(=O)c2ccccc2)cc1)c1ccncc1 [(E)-4-(4-((2-isonicotinoylhydrazono)methyl)phenoxy)-3-(phenylsulfonyl)-1,2,5-oxadiazole 2-oxide]
pIC50 [1]: 4.37 | MIC90 [2]: 1 µM and 1.0 µM

NC(=O)c1c(COc2ccccc2/C=N/NC(=O)c2ccncc2)no[n+]1[O-] [Compound 4a, (E)-3-Carbamoyl-4-((2-((2-isonicotinoylhydrazono)methyl)phenoxy)methyl)-1,2,5-oxadiazole 2-Oxide]
MIC90 [3]: 2.95 µg/mL (≈ 7.72 µM) | IC50 [4]: 327 µg/mL (≈ 854 µM) | MIC90 [5]: 0.16 µg/mL (≈ 0.418 µM)

NC(=O)c1c(COc2cccc(/C=N/NC(=O)c3ccncc3)c2)no[n+]1[O-] [Compound 4b, (E)-3-Carbamoyl-4-((3-((2-isonicotinoylhydrazono)methyl)phenoxy)methyl)-1,2,5-oxadiazole 2-Oxide]
MIC90 [3]: 1.6 µg/mL (≈ 4.18 µM) | IC50 [4]: 490 µg/mL (≈ 1280 µM) | MIC90 [5]: 0.15 µg/mL (≈ 0.392 µM)

NC(=O)c1c(COc2ccc(/C=N/NC(=O)c3ccncc3)cc2)no[n+]1[O-] [Compound 4c, (E)-3-Carbamoyl-4-((4-((2-isonicotinoylhydrazono)methyl)phenoxy)methyl)-1,2,5-oxadiazole 2-Oxide]
MIC90 [3]: 0.78 µg/mL (≈ 2.04 µM) | IC50 [4]: 443 µg/mL (≈ 1160 µM) | MIC90 [5]: 0.16 µg/mL (≈ 0.418 µM)

O=C(N/N=C/c1ccc2no[n+]([O-])c2c1)c1ccccc1 [Compound 9, (E)-6-((2-Benzoylhydrazono)methyl)benzo[c][1,2,5]oxadiazole 1-Oxide]
IC50 [4]: 36.8 µg/mL (≈ 130 µM) | MIC90 [5]: 2.4 µg/mL (≈ 8.5 µM)

CC(C)(C)c1ccc(C(=O)N/N=C/c2ccc3no[n+]([O-])c3c2)cc1 [Compound 10, (E)-6-((2-(4-(tert-Butyl)benzoyl)hydrazono)methyl)benzo[c][1,2,5]oxadiazole 1-Oxide]
IC50 [4]: 8.5 µg/mL (≈ 25.1 µM) | MIC90 [5]: 1.3 µg/mL (≈ 3.84 µM)

O=C(N/N=C/c1ccc2no[n+]([O-])c2c1)c1ccc([N+](=O)[O-])cc1 [Compound 11, (E)-6-((2-(4-Nitrobenzoyl)hydrazono)methyl)benzo[c][1,2,5]oxadiazole 1-Oxide]
MIC90 [6]: > 200 µM | MIC90 [7]: > 200 µM | MIC [5]: > 62 µM | MIC90 [5]: 1.73 µg/mL (≈ 5.29 µM) | MIC90 [8]: > 200 µM

O=C(N/N=C/c1ccc2no[n+]([O-])c2c1)c1ccccc1O [Compound 12, (E)-6-((2-(2-Hydroxybenzoyl)hydrazono)methyl)benzo[c][1,2,5]oxadiazole 1-Oxide]
MIC [5]: 16.4 µg/mL

O=C(N/N=C/c1ccc2no[n+]([O-])c2c1)c1cccc(O)c1 [Compound 13, (E)-6-((2-(3-Hydroxybenzoyl)hydrazono)methyl)benzo[c][1,2,5]oxadiazole 1-Oxide]
MIC90 [5]: > 25 µg/mL

O=C(N/N=C/c1ccc2no[n+]([O-])c2c1)c1ccc(O)cc1 [Compound 14, (E)-6-((2-(4-Hydroxybenzoyl)hydrazono)methyl)benzo[c][1,2,5]oxadiazole 1-Oxide]
MIC90 [6]: > 200 µM | MIC90 [7]: > 200 µM | MIC90 [5]: > 25 µg/mL | MIC90 [8]: > 200 µM

Nc1ccccc1C(=O)N/N=C/c1ccc2no[n+]([O-])c2c1 [Compound 15, (E)-6-((2-(2-Aminobenzoyl)hydrazono)methyl)benzo[c][1,2,5]oxadiazole 1-Oxide]
IC50 [4]: 36.4 µg/mL (≈ 122 µM) | MIC90 [5]: 3.7 µg/mL (≈ 12.4 µM)

Nc1cccc(C(=O)N/N=C/c2ccc3no[n+]([O-])c3c2)c1 [Compound 16, (E)-6-((2-(3-Aminobenzoyl)hydrazono)methyl)benzo[c][1,2,5]oxadiazole 1-Oxide]
IC50 [4]: 24.4 µg/mL (≈ 82.1 µM) | MIC90 [5]: 5.3 µg/mL (≈ 17.8 µM)

Nc1ccc(C(=O)N/N=C/c2ccc3no[n+]([O-])c3c2)cc1 [Compound 17, (E)-6-((2-(4-Aminobenzoyl)hydrazono)methyl)benzo[c][1,2,5]oxadiazole 1-Oxide]
MIC90 [6]: > 200 µM | MIC90 [7]: > 200 µM | IC50 [4]: 250 µg/mL (≈ 841 µM) | MIC90 [5]: 3.16 µg/mL (≈ 10.6 µM) | MIC90 [8]: > 200 µM

N#Cc1c(-c2ccccc2)[n+]([O-])c2ccc(C3OCCO3)cc2[n+]1[O-] [Compound 19]
IC50 [4]: 10.7 µg/mL (≈ 31.9 µM) | MIC90 [5]: 10.3 µg/mL (≈ 30.7 µM)

Cc1ccc(-c2c(C#N)[n+]([O-])c3cc(C4OCCO4)ccc3[n+]2[O-])cc1 [Compound 20, 3-Cyano-6-(1,3-dioxolan-2-yl)-2-(p-tolyl)quinoxaline 1,4-Dioxide]
IC50 [4]: 6.2 µg/mL (≈ 17.7 µM) | MIC90 [5]: 5.7 µg/mL (≈ 16.3 µM)

N#Cc1c(-c2ccc(Cl)cc2)[n+]([O-])c2ccc(C3OCCO3)cc2[n+]1[O-] [Compound 21, 2-(4-Chlorophenyl)-3-cyano-6-(1,3-dioxolan-2-yl)quinoxaline 1,4-Dioxide]
IC50 [4]: 5 µg/mL (≈ 13.5 µM) | MIC90 [5]: 6.4 µg/mL (≈ 17.3 µM)

COc1ccc(-c2c(C#N)[n+]([O-])c3cc(C4OCCO4)ccc3[n+]2[O-])cc1 [Compound 22, 3-Cyano-6-(1,3-dioxolan-2-yl)-2-(4-methoxyphenyl)quinoxaline 1,4-Dioxide]
IC50 [4]: 5.5 µg/mL (≈ 15.1 µM) | MIC90 [5]: 4.4 µg/mL (≈ 12 µM)

N#Cc1c(-c2ccc(F)cc2)[n+]([O-])c2ccc(C3OCCO3)cc2[n+]1[O-] [Compound 23, 3-Cyano-6-(1,3-dioxolan-2-yl)-2-(4-fluorophenyl)quinoxaline 1,4-Dioxide]
IC50 [4]: 7.7 µg/mL (≈ 21.8 µM) | MIC90 [5]: 8.6 µg/mL (≈ 24.3 µM)

N#Cc1c(-c2ccc(OC(F)(F)F)cc2)[n+]([O-])c2ccc(C3OCCO3)cc2[n+]1[O-] [Compound 24, 3-Cyano-6-(1,3-dioxolan-2-yl)-2-(4-(trifluoromethoxy)phenyl)quinoxaline 1,4-Dioxide]
IC50 [4]: 28 µg/mL (≈ 66.8 µM) | MIC90 [5]: 6.5 µg/mL (≈ 15.5 µM)

N#Cc1c(-c2ccco2)[n+]([O-])c2ccc(C3OCCO3)cc2[n+]1[O-] [Compound 25, 3-Cyano-6-(1,3-dioxolan-2-yl)-2-(furan-2-yl)quinoxaline 1,4-Dioxide]
IC50 [4]: 11.6 µg/mL (≈ 35.7 µM) | MIC90 [5]: 1.7 µg/mL (≈ 5.23 µM)

N#Cc1c(-c2cccs2)[n+]([O-])c2ccc(C3OCCO3)cc2[n+]1[O-] [Compound 26, 3-Cyano-6-(1,3-dioxolan-2-yl)-2-(thiophen-2-yl)quinoxaline 1,4-Dioxide]
IC50 [4]: 5.9 µg/mL (≈ 17.3 µM) | MIC90 [5]: 4.1 µg/mL (≈ 12 µM)

N#Cc1c(-c2ccccc2)[n+]([O-])c2ccc(/C=N/NC(=O)c3ccncc3)cc2[n+]1[O-] [Compound 28]
IC50 [4]: 8.6 µg/mL (≈ 21 µM) | MIC90 [5]: 16.3 µg/mL (≈ 39.7 µM)

NNC(=O)c1ccncc1 [isoniazid, reference compound]
MIC90 [5]: 0.014 µg/mL (≈ 0.102 µM)
